Consider 71 compounds from US7973069B2 (PTC Therapeutics, Inc., priority 2004, dated 2011).

Several values for one entry are separate records, joined by “and”; a condition that tells them apart may be missing. Equal values may be shown once. Bounds are passed on as bounds.

For this assay, the system named is HCV replicon. It is filed as cell-based.
Turning to `CCCCNC(=O)Nc1ccc(-c2c(C#N)c3ccc(OC(F)F)cc3n2CC)cc1` [Compound 1138], the 50% inhibitory concentration (IC50) (as a rule, the concentration needed to halve the response being measured) was 0.5 to 2 µM.

In turn, `CCOc1ccc2c(c1)c(C#N)c(-c1ccc(NC(=O)OC(C)COC)cc1)n2C1CCC1` (centres unmarked) [Compound 1299] displayed a half-maximal inhibitory concentration (IC50) of 0.5 to 2 µM.

For `CCCS(=O)(=O)Nc1ccc(-c2c(C#N)c3ccc(OCC)cc3n2C2CCCC2)cc1` [Compound 1140], the IC50 fell in the range of 0.5 to 2 µM.

For the compound `CCCOC(=O)N(CC)c1ccc(-c2c(C#N)c3ccc(OCC)cc3n2C2CCC2)cc1` [Compound 1252], the concentration for half-maximal inhibition (IC50) was 0.5 to 2 µM.

`CCn1c(-c2ccc(NC(=O)C3CC3)cc2)c(C#N)c2ccc(OCCN3CCCC3)cc21` [Compound 1054] displayed an IC50 of 0.5 to 2 µM.

With `CC(C)OC(=O)Nc1ccc(-c2c(C#N)c3ccc(OCCN4CCCC4)cc3n2C2CCC2)cc1` [Compound 1142], the 50% inhibitory concentration (IC50) was < 0.5 µM.

Compound `CCn1c(-c2ccc(N3CCNC3=O)cc2)c(C#N)c2ccc(OCCCCl)cc21` [Compound 1051] came in with a half-inhibitory concentration (IC50) of 0.5 to 2 µM.

Take `CCCn1c(-c2cccc(N)c2)c(C#N)c2cc(OCc3ccccc3)ccc21` [Compound 866]: the IC50 was in the range of 0.5 to 2 µM.

For `CCOc1ccc2c(C#N)c(-c3ccc(NP(=O)(OCC)OCC)cc3)n(C3CCC3)c2c1` [Compound 936], the IC50 is < 0.5 µM.

`CCOP(=O)(Nc1ccc(-c2c(C#N)c3ccc(OC)cc3n2C2CCC2)cc1)OCC` [Compound 1081] registered an IC50 of 0.5 to 2 µM.

As for `CCOc1ccc2c(C#N)c(-c3ccc(NC(=O)OC4(C)CCCC4)cc3)n(C3CCC3)c2c1` [Compound 1209], the IC50 was < 0.5 µM.

As to `CCn1c(-c2ccc(NC(=O)NC(C)C)cc2)c(C#N)c2ccc(OCCF)cc21` [Compound 956], the IC50 was < 0.5 µM.

For `CCn1c(-c2cccc(NS(=O)(=O)CC)c2)c(C#N)c2ccc(OCCCN3CCOCC3)cc21` [Compound 1035], the half-maximal inhibitory concentration (IC50) is 0.5 to 2 µM.

Take `CCOc1ccc2c(C#N)c(-c3ccc(NC(=O)OCc4ccccc4)cc3)n(CC3CC3)c2c1` [Compound 1153]: the IC50 is < 0.5 µM.

`CCn1c(-c2ccc(NC(=O)OCc3ccccc3)cc2)c(C#N)c2ccc(OCCF)cc21` [Compound 948]: the half-inhibitory concentration (IC50) was < 0.5 µM.

For the compound `CC1(COC(=O)Nc2ccc(-c3c(C#N)c4ccc(OCC5CCCO5)cc4n3C3CCC3)cc2)CC1` (centres unmarked) [Compound 1284], the IC50 was < 0.5 µM.

In turn, `COc1ccc2c(c1)c(C#N)c(-c1ccc(NS(=O)(=O)C(C)C)cc1)n2C1CCC1` [Compound 1231] displayed a concentration for half-maximal inhibition (IC50) of 0.5 to 2 µM.

For `CCCOc1ccc2c(C#N)c(-c3ccc(NC(=O)OC4CCOCC4)cc3)n(C(C)C)c2c1` [Compound 1248], the IC50 was < 0.5 µM.

Regarding `CCCOC(=O)Nc1ccc(-c2c(C#N)c3ccc(OCC)cc3n2C2CCCC2)cc1` [Compound 1128], the IC50 was < 0.5 µM.

As for `CCCOc1ccc2c(C#N)c(-c3ccc(NC(=O)OC(C)C4CC4)cc3)n(C(C)C)c2c1` (centres unmarked) [Compound 1244], the IC50 is < 0.5 µM.

With `CC(C)OC(=O)Nc1ccc(-c2c(C#N)c3ccc(OCC4CCCO4)cc3n2C2CCC2)cc1` (centres unmarked) [Compound 1285], the half-inhibitory concentration (IC50) is < 0.5 µM.

As for `CCn1c(-c2ccc(NS(=O)(=O)C3CC3)cc2)c(C#N)c2ccc(OC3CC3)cc21` [Compound 1047], the concentration for half-maximal inhibition (IC50) was < 0.5 µM.

`CCCn1c(-c2ccc(NC(=O)OC)cc2)c(C#N)c2ccc(OCC)cc21` [Compound 1062] registered a half-maximal inhibitory concentration (IC50) of 0.5 to 2 µM.

The compound `CCOC(=O)Nc1ccc(-c2c(C#N)c3ccc(OC)cc3n2CC2CC2)cc1` [Compound 984] registered an IC50 of 0.5 to 2 µM.

The compound `CCN(c1ccc(-c2c(C#N)c3ccc(C(F)(F)F)cc3n2CC)cc1)S(C)(=O)=O` [Compound 1003] showed an IC50 of 0.5 to 2 µM.

For `CCCOc1ccc2c(C#N)c(-c3ccc(NC(=O)OCC4(C)CC4)cc3)n(C(C)C)c2c1` [Compound 1243], the half-inhibitory concentration (IC50) is < 0.5 µM.

`CCn1c(-c2ccc(NC(=O)C3CC3)cc2)c(C#N)c2ccc(OCCn3cccn3)cc21` [Compound 1184] showed a concentration for half-maximal inhibition (IC50) of 0.5 to 2 µM.

For `CCn1c(-c2ccc(NS(=O)(=O)C3CC3)c(F)c2)c(C#N)c2ccc(OC)cc21` [Compound 873], the IC50 was > 2 µM.

For `CCn1c(-c2ccc(NC(C)=O)cc2)c(C#N)c2ccc(OC(F)(F)F)cc21` [Compound 913], the IC50 is 0.5 to 2 µM.

In the case of `COc1ccc2c(C#N)c(-c3ccc(NS(=O)(=O)C4CC4)cc3)n(CC3CC3)c2c1` [Compound 982], the IC50 was > 2 µM.

`CCCNC(=O)Nc1ccc(-c2c(C#N)c3cc(OC)ccc3n2CC)cc1` [Compound 1010] showed an IC50 of 0.5 to 2 µM.

Regarding `COCCN(C)CCOc1ccc2c(C#N)c(-c3ccc(NC(=O)OC(C)C)cc3)n(C3CCC3)c2c1` [Compound 1274], the half-inhibitory concentration (IC50) was < 0.5 µM.

Consider `C[C@@H](OC(=O)Nc1ccc(-c2cc3ccc(Oc4ncccn4)cc3n2C2CCC2)cc1)C1CC1` [Compound 2341], for which the IC50 was < 0.5 µM.

As for `CCOc1ccc2c(C#N)c(-c3ccc(NC(=O)NC(C)C)cc3)n(C(C)C)c2c1` [Compound 1100], the IC50 was < 0.5 µM.

Take `CC(C)NC(=O)Nc1ccc(-c2c(C#N)c3ccc(OCc4cccnc4)cc3n2C2CCC2)cc1` [Compound 1212]: the concentration for half-maximal inhibition (IC50) is < 0.5 µM.

Regarding `CCCS(=O)(=O)Nc1ccc(-c2c(C#N)c3ccc(OCCF)cc3n2C2CCC2)cc1` [Compound 1175], the IC50 was < 0.5 µM.

`CCn1c(-c2ccc(NC(=O)OC(C)C)cc2)c(C#N)c2cc3c(cc21)OCO3` [Compound 1040] came in with a half-inhibitory concentration (IC50) of 0.5 to 2 µM.

`CCOC(=O)Nc1ccc(-c2c(C#N)c3cc(OCc4ccccc4)ccc3n2CC)cc1` [Compound 925] came in with an IC50 of 0.5 to 2 µM.

`CCCCn1c(-c2cccc(NC(=O)NCCc3ccccc3)c2)c(C#N)c2ccc(OCC)cc21` [Compound 1024]: the IC50 is < 0.5 µM.

For the compound `CCOc1ccc2c(C#N)c(-c3ccc(NC(=O)NC4CCCC4)cc3)n(C3CCC3)c2c1` [Compound 1027], the IC50 is < 0.5 µM.

Consider `COc1ccc2c(c1)c(C#N)c(-c1ccc(NC(=O)OC(C)C)cc1)n2C1CCC1` [Compound 1232], for which the half-maximal inhibitory concentration (IC50) was < 0.5 µM and 0.5 to 2 µM.

Consider `CC(C)OC(=O)Nc1ccc(-c2c(C#N)c3ccc(OCCCn4ccnc4)cc3n2C2CCC2)cc1` [Compound 1254], for which the IC50 is < 0.5 µM.

`CCn1c(-c2ccc(N)c(F)c2)c(C#N)c2ccc(OC)cc21` [Compound 880] returned a concentration for half-maximal inhibition (IC50) of 0.5 to 2 µM.

Consider `CCn1c(-c2ccc(NC(=O)OCCF)cc2)c(C#N)c2ccc(OCCCCl)cc21` [Compound 1033], for which the IC50 was < 0.5 µM.

With `CCOc1ccc2c(C#N)c(-c3ccc(NC(=O)OC(C)(C)C)cc3)n(C3CCC3)c2c1` [Compound 1072], the IC50 is < 0.5 µM.

`CCNC(=O)Nc1ccc(-c2c(C#N)c3ccc(OCC)cc3n2C(C)C)cc1` [Compound 1098] had an IC50 of 0.5 to 2 µM.

For the compound `C[C@@H](OC(=O)Nc1ccc(-c2c(C#N)c3ccc(Oc4ncccn4)cc3n2C2CC2)cc1F)C1CC1` [Compound 2413], the IC50 was < 0.5 µM.

For the compound `N#Cc1c(-c2ccc(N3CCCS3(=O)=O)cc2)n(CCF)c2cc(OC(F)(F)F)ccc12` [Compound 905], the IC50 was < 0.5 µM.

`CC(C)NC(=O)Nc1ccc(-c2c(C#N)c3ccc(OCCCn4ccnc4)cc3n2C2CCC2)cc1` [Compound 1308]: the IC50 was < 0.5 µM.

Take `CCOc1ccc2c(C#N)c(-c3ccc(NC(=O)OCc4ccccn4)cc3)n(C3CCC3)c2c1` [Compound 1264]: the IC50 was < 0.5 µM.

`CCn1c(-c2ccc(NC(=O)C3CC3)cc2)c(C#N)c2ccc(OCCN3CCN(C)CC3)cc21` [Compound 952] yielded an IC50 of 0.5 to 2 µM.

With `CCOc1ccc2c(c1)c(C#N)c(-c1ccc(NS(=O)(=O)CC)cc1)n2C1CCC1` [Compound 1228], the 50% inhibitory concentration (IC50) fell in the range of 0.5 to 2 µM.

As to `CCCCNC(=O)Nc1ccc(-c2c(C#N)c3cc(OC)ccc3n2CC)cc1` [Compound 1012], the half-inhibitory concentration (IC50) was 0.5 to 2 µM.

On to `CCCn1c(-c2ccc(NC(=O)NCCc3ccccc3)cc2)c(C#N)c2ccc(OCC)cc21` [Compound 1256], for which the IC50 is < 0.5 µM.

`CCOc1ccc2c(C#N)c(-c3ccc(N)cc3)n(C3CC3)c2c1` [Compound 1245] displayed a half-inhibitory concentration (IC50) of 0.5 to 2 µM.

In turn, `CCn1c(-c2ccc(NC(=O)NC(C)C)cc2)c(C#N)c2ccc(OC(F)F)cc21` [Compound 1137] returned a half-inhibitory concentration (IC50) of 0.5 to 2 µM.

In turn, `CCOc1ccc2c(C#N)c(-c3ccc(NC(C)=O)cc3)n(CC)c2c1` [Compound 895] yielded an IC50 of 0.5 to 2 µM.

For `CCN(CC)CCOc1ccc2c(C#N)c(-c3ccc(NC(=O)OC(C)C)cc3)n(C3CCC3)c2c1` [Compound 1278], the half-maximal inhibitory concentration (IC50) was < 0.5 µM.

In the case of `CCn1c(-c2ccc(NC(=O)C3CC3)cc2)c(C#N)c2ccc(OCCn3cnnc3)cc21` [Compound 1092], the IC50 was 0.5 to 2 µM.

In turn, `CCCn1c(-c2ccc(NS(=O)(=O)CC)cc2)c(C#N)c2ccc(OCc3ccccc3)cc21` [Compound 922] gave a 50% inhibitory concentration (IC50) of 0.5 to 2 µM.

On to `CCn1c(-c2ccc(NS(=O)(=O)C3CC3)cc2)c(C#N)c2ccc(OC(F)(F)F)cc21` [Compound 883], for which the IC50 was < 0.5 µM.

With `CCOc1ccc2c(C#N)c(-c3ccc(NC(=O)NC(C)CC)cc3)n(C3CCC3)c2c1` (centres unmarked) [Compound 1159], the concentration for half-maximal inhibition (IC50) is < 0.5 µM.

Take `CC(C)OC(=O)Nc1ccc(-c2c(C#N)c3ccc(OCCCN4CCOCC4)cc3n2C2CCC2)cc1` [Compound 1253]: the 50% inhibitory concentration (IC50) was 0.5 to 2 µM.

In turn, `CCCNC(=O)Nc1ccc(-c2c(C#N)c3ccc(OC(F)F)cc3n2CC)cc1` [Compound 1136] gave an IC50 of 0.5 to 2 µM.

With `CCOc1ccc2c(C#N)c(-c3ccc(NC(=O)OC4CCCC4)cc3)n(C3CCC3)c2c1` [Compound 1109], the IC50 was < 0.5 µM.

Turning to `CCCOc1ccc2c(C#N)c(-c3ccc(NC(=O)OC(C)C4CC4)cc3)n(C(C)C)c2c1` (centres unmarked) [Compound 1242], the IC50 was < 0.5 µM.

Compound “[4-(3-cyano-1-cyclobutyl-6-cyclopropyl-1H-indol-2-yl)-phenyl]-carbamic acid tert-butyl ester [Compound 2513]” displayed an IC50 of 0.5 to 2 µM.

As to `COc1ccc2c(C#N)c(-c3ccc(NS(=O)(=O)C4CC4)cc3)n(CC3CCCC3)c2c1` [Compound 890], the IC50 was 0.5 to 2 µM.

The compound `CCCNC(=O)Nc1ccc(-c2c(C#N)c3ccc(OCC)cc3n2C(C)C)cc1` [Compound 1099] showed a 50% inhibitory concentration (IC50) of 0.5 to 2 µM.

On to `CCOc1ccc2c(C#N)c(-c3ccc(NC(=O)OCC(C)C)cc3)n(CC3CC3)c2c1` [Compound 1151], for which the IC50 is < 0.5 µM.

Turning to `N#Cc1c(-c2ccc(NC(=O)OC3CCC3)cc2)n(C2CCC2)c2cc(OCCCCN3CCCC3)ccc12` [Compound 1258], the IC50 was < 0.5 µM.
